Assay results taken from patent publication US20200038513A1, “MODULATORS OF FAK PROTEOLYSIS AND ASSOCIATED METHODS OF USE” (ARVINAS OPERATIONS, INC., priority 2018, published 2020).
Read-outs that look alike come from different tables or passages of the source.

Experiments:
PPB = assay type: in vitro ADME; details: plasma
[1] = Pharmacokinetics of intraperitoneal or intravenous injection in CD1 mice; assay type: in vivo; details: for Conc. (ng/mL) Mouse 1 / Conc. (ng/mL) Mouse 2 / Conc. (ng/mL) Mouse 3 / concentration at 0.25 h / concentration at 0.5 h / concentration at 1 h / concentration at 2 h / concentration at 4 h / concentration at 8 h / concentration at 0.033 h / concentration at 0.083 h: CD1 mice plasma; for concentration at 0.25 h / concentration at 0.5 h / concentration at 1 h / concentration at 2 h / concentration at 4 h / concentration at 8 h / AUC(0-t) / half-life / concentration at 0.033 h / concentration at 0.083 h: male, CD1, mouse, plasma
Procedure, shortened: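 Male CD1 mice, 6-8 weeks old, 3 per group, dosed IV (5 s injection; 10% HP-b-CD, 40 mM sodium acetate, 40 mM NaCl, pH 4.5) or IP (5% EtOH, 5% Solutol HS15 in D5W). Serial dorsal metatarsal vein blood, terminal heart puncture; plasma analysed by LC/MS/MS after acetonitrile precipitation, calibration 1-2000 ng/mL.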

[2] = ip, 10 mg/kg, IP 10 mg/kg, read-out: Conc. (ng/mL) Mouse 1
[3] = ip, 10 mg/kg, IP 10 mg/kg, read-out: Conc. (ng/mL) Mouse 2
[4] = ip, 10 mg/kg, IP 10 mg/kg, read-out: Conc. (ng/mL) Mouse 3
[5] = ip, 10 mg/kg, IP 10 mg/kg, read-out: Mean
[6] = iv, 1 mg/kg, IV 1.0 mg/kg, read-out: Conc. (ng/mL) Mouse 1
[7] = iv, 1 mg/kg, IV 1.0 mg/kg, read-out: Conc. (ng/mL) Mouse 2
[8] = iv, 1 mg/kg, IV 1.0 mg/kg, read-out: Conc. (ng/mL) Mouse 3
[9] = iv, 1 mg/kg, IV 1.0 mg/kg, read-out: Mean

fraction unbound (PPB): 0.0065
Conc. (ng/mL) Mouse 1 ([1]; IP 10 mg/kg, 24 h): BLOQ
Conc. (ng/mL) Mouse 2 ([1]; IP 10 mg/kg, 24 h): BLOQ
Conc. (ng/mL) Mouse 3 ([1]; IP 10 mg/kg, 24 h): BLOQ
Conc. (ng/mL) Mouse 1 ([1]; IV 1.0 mg/kg, 4 h): BLOQ
Conc. (ng/mL) Mouse 3 ([1]; IV 1.0 mg/kg, 4 h): BLOQ
Conc. (ng/mL) Mouse 1 ([1]; IV 1.0 mg/kg, 8 h): BLOQ
Conc. (ng/mL) Mouse 2 ([1]; IV 1.0 mg/kg, 8 h): BLOQ
Conc. (ng/mL) Mouse 3 ([1]; IV 1.0 mg/kg, 8 h): BLOQ
Conc. (ng/mL) Mouse 1 ([1]; IV 1.0 mg/kg, 24 h): BLOQ
Conc. (ng/mL) Mouse 2 ([1]; IV 1.0 mg/kg, 24 h): BLOQ
Conc. (ng/mL) Mouse 3 ([1]; IV 1.0 mg/kg, 24 h): BLOQ
concentration at 0.25 h [1, 2]: 800 ng/mL
concentration at 0.25 h [1, 3]: 407 ng/mL
concentration at 0.25 h [1, 4]: 271 ng/mL
concentration at 0.25 h [1, 5]: 493 ng/mL
concentration at 0.5 h [1, 2]: 860 ng/mL
concentration at 0.5 h [1, 3]: 523 ng/mL
concentration at 0.5 h [1, 4]: 335 ng/mL
concentration at 0.5 h [1, 5]: 573 ng/mL
concentration at 1 h [1, 2]: 1040 ng/mL
concentration at 1 h [1, 3]: 1520 ng/mL
concentration at 1 h [1, 4]: 1780 ng/mL
concentration at 1 h [1, 5]: 1450 ng/mL
concentration at 2 h [1, 2]: 1630 ng/mL
concentration at 2 h [1, 3]: 1590 ng/mL
concentration at 2 h [1, 4]: 1180 ng/mL
concentration at 2 h [1, 5]: 1470 ng/mL
concentration at 4 h ([1]; ip, 10 mg/kg, IP 10 mg/kg, 4 h, read-out: Conc. (ng/mL) Mouse 1): 378 ng/mL
concentration at 4 h ([1]; ip, 10 mg/kg, IP 10 mg/kg, 4 h, read-out: Conc. (ng/mL) Mouse 2): 1090 ng/mL
concentration at 4 h ([1]; ip, 10 mg/kg, IP 10 mg/kg, 4 h, read-out: Conc. (ng/mL) Mouse 3): 1250 ng/mL
concentration at 4 h ([1]; ip, 10 mg/kg, IP 10 mg/kg, 4 h, read-out: Mean): 906 ng/mL
concentration at 8 h ([1]; ip, 10 mg/kg, IP 10 mg/kg, 8 h, read-out: Conc. (ng/mL) Mouse 1): 24.1 ng/mL
concentration at 8 h ([1]; ip, 10 mg/kg, IP 10 mg/kg, 8 h, read-out: Conc. (ng/mL) Mouse 2): 145 ng/mL
concentration at 8 h ([1]; ip, 10 mg/kg, IP 10 mg/kg, 8 h, read-out: Conc. (ng/mL) Mouse 3): 77.1 ng/mL
concentration at 8 h ([1]; ip, 10 mg/kg, IP 10 mg/kg, 8 h, read-out: Mean): 82 ng/mL
AUC(0-t) ([1]; ip, 10 mg/kg, read-out: AUClast (h * ng/mL) IP): 6500 ng·h/mL
half-life ([1]; ip, 10 mg/kg, read-out: T ½ (h) IP (converted)): 1.22 h
concentration at 0.033 h [1, 6]: 2100 ng/mL
concentration at 0.033 h [1, 7]: 1800 ng/mL
concentration at 0.033 h [1, 8]: 2310 ng/mL
concentration at 0.033 h [1, 9]: 2070 ng/mL
concentration at 0.083 h [1, 6]: 356 ng/mL
concentration at 0.083 h [1, 7]: 303 ng/mL
concentration at 0.083 h [1, 8]: 432 ng/mL
concentration at 0.083 h [1, 9]: 364 ng/mL
concentration at 0.25 h [1, 6]: 50.1 ng/mL
concentration at 0.25 h [1, 7]: 47.7 ng/mL
concentration at 0.25 h [1, 8]: 47 ng/mL
concentration at 0.25 h [1, 9]: 48.3 ng/mL
concentration at 0.5 h [1, 6]: 20.9 ng/mL
concentration at 0.5 h [1, 7]: 28.6 ng/mL
concentration at 0.5 h [1, 8]: 27.7 ng/mL
concentration at 0.5 h [1, 9]: 25.7 ng/mL
concentration at 1 h [1, 6]: 8.68 ng/mL
concentration at 1 h [1, 7]: 11.6 ng/mL
concentration at 1 h [1, 8]: 9.52 ng/mL
concentration at 1 h [1, 9]: 9.9 ng/mL
concentration at 2 h [1, 6]: 5.32 ng/mL
concentration at 2 h [1, 7]: 7.86 ng/mL
concentration at 2 h [1, 8]: 5.45 ng/mL
concentration at 2 h [1, 9]: 6.21 ng/mL
concentration at 4 h ([1]; iv, 1 mg/kg, IV 1.0 mg/kg, 4 h, read-out: Conc. (ng/mL) Mouse 2): 4.59 ng/mL
AUC(0-t) ([1]; iv, 1 mg/kg, read-out: AUClast (h * ng/mL) IV): 268 ng·h/mL
half-life ([1]; iv, 1 mg/kg, read-out: T ½ (h) IV (converted)): 1.26 h
Structure (SMILES): Cc1ncsc1-c1ccc(CNC(=O)[C@@H]2C[C@@H](O)CN2C(=O)[C@@H](NC(=O)COCCCOc2ccc(Nc3ncc(C(F)(F)F)c(NCc4cccc(N(C)S(C)(=O)=O)c4)n3)cc2)C(C)(C)C)cc1 [Compound 101, (2S,4R)-1-((S)-3,3-dimethyl-2-(2-(3-(4-((4-((3-(N-methylmethylsulfonamido)benzyl)amino)-5-(trifluoromethyl)pyrimidin-2-yl)amino)phenoxy)propoxy)acetamido)butanoyl)-4-hydroxy-N-(4-(4-methylthiazol-5-yl)benzyl)pyrrolidine-2-carboxamide]
